Results reported in ChEMBL document CHEMBL1201862, “PubChem BioAssay data set” (2004).
Calls of active or inactive are those of the source.

Assays:
[1] = biological target: Neuropeptide Y receptor type 2 (Homo sapiens, UniProt P49146); experiment: Fluorescence-based cell-based high-throughput dose response assay for agonists of NPY-Y2. [Related pubchem assays: 1703 (Screening assay (CNGC inhibitors).), 1359 (Screening assay (NPY-Y2 potentiators or agonists).), 1304 (Screening assay (NPY-Y1 potentiators or agonists).), 1710 (Screening assay (NPY-Y2 agonists).), 1791 (Summary AID.)]; format: functional
[2] = biological target: Neuropeptide Y receptor type 1 (Homo sapiens, UniProt P25929); experiment: Fluorescence-based counterscreen for agonists of NPY-Y2: cell-based high-throughput dose response assay for agonists of NPY-Y1.; format: functional
[3] = test system: HEK293; experiment: Fluorescence-based counterscreen for potentiators or agonists of NPY-Y2: cell-based high-throughput dose response assay to identify inhibitors of cyclic nucleotide gated ion channel (CNGC) activity. In this assay, the parental HEK293 cell line transfected with a cyclic-nucleotide gated ion channel (CNGC)-based cAMP sensor is used to measure inhibition of isoproterenol-induced CNGC activity by test compound.; format: functional; conditions: Homo sapiens;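 also: stimulus is 1 µM isoproterenol at EC100 plus PDE inhibitor Ro 20-1724 at 25 µM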
[4] = biological target: Eukaryotic translation initiation factor 4H (Homo sapiens, UniProt Q15056); experiment: eIF4H binding inhibition – biochemical, uHTS, fluorescence polarization, translation initiation inhibitor project, primary screen (AID 2012)
[5] = biological target: Polyadenylate-binding protein 1 (Homo sapiens, UniProt P11940); experiment: blockers of PABP interaction with poly(A) – biochemical, fluorescence polarization, […] (AID 2014)
[6] = biological target: T1, Heat shock factor protein 1 (Mus musculus, UniProt P38532); experiment: decrease of HSF1-responsive luciferase luminescence – cell-based, NIH3T3, dose retest, confirmation (AID 2382); format: functional;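 also: NIH3T3 fibroblasts with HSF1-driven luciferase reporter stressed by proteasome inhibitor MG132; luminescence from HSF1-driven luciferase expression after 8 hours of MG132 stress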
T1 sequence (P38532 whole entry): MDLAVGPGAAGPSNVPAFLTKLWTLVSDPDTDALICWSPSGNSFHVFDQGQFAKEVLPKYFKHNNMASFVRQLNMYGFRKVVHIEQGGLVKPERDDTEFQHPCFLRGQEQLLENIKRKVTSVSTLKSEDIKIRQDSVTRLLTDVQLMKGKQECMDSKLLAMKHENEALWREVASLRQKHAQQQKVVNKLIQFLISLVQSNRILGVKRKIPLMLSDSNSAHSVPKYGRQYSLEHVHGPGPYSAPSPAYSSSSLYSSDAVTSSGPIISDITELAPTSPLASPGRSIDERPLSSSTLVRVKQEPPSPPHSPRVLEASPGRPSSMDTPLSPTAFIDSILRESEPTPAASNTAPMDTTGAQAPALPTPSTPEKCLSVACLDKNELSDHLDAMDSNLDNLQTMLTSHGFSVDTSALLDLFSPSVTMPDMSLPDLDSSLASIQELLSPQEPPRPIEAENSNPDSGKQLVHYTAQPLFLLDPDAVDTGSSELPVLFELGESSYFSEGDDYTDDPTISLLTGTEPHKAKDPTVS

[7] = biological target: Oxytocin receptor (Homo sapiens, UniProt P30559); experiment: Fluorescence-based cell-based high throughput dose response assay for agonists of the Oxytocin Receptor (OXTR). [Related pubchem assays: 2435 (Primary screen (OXTR agonists in singlicate)), 434991 (Counterscreen (V1R agonists in triplicate)), 2482 (Summary (OXTR agonists)), 434963 (Confirmation screen (OXTR agonists in triplicate))]; format: functional
[8] = biological target: Vasopressin V1a receptor (Homo sapiens, UniProt P37288); experiment: Counterscreen for Oxytocin Receptor (OXTR) agonists: Fluorescence-based cell-based high throughput dose response assay to identify agonists of the vasopressin 1 receptor (V1R). [Related pubchem assays: 2435 (Primary screen (OXTR agonists in singlicate)), 434991 (Counterscreen (V1R agonists in triplicate)), 2482 (Summary (OXTR agonists)) …; format: functional
[9] = biological target: Photoreceptor-specific nuclear receptor (Homo sapiens, UniProt Q9Y5X4); format: functional, cell-based;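 also: CHO-S cells with Gal4-NCOR and VP16-NR2E3 two-hybrid luciferase reporter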
[10] = loss of viability in HepG2 cells – cell-based, CellTiter-Glo, cherry-picked, cytotoxicity control for Shn3 inhibitor project, dose response (AID 624134); format: functional
[11] = reduction of Shn3 3'UTR-driven luciferase in osteoblasts – cell-based, Clone20 osteoblasts, firefly luciferase, cherry-picked, dose response (AID 624132); format: functional;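 also: firefly luciferase luminescence from reporter carrying the Shn3 3'UTR in osteoblasts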
[12] = Luminescence-based counterscreen assay for KLF5 inhibitors: dose response cell-based high throughput screening assay to identify cytotoxic compounds using the IEC-6 intestinal epithelial cell line. [Related pubchem assays: 1700 (Primary screen.), 1834 (Confirmation screen.), 1858 (Summary AID.), 1905 (Counterscreen.)]; format: functional
[13] = Shn3 3'UTR reporter signal decrease – cell-based, Clone20 osteoblasts, firefly luciferase, cherry-pick, set 2, Schnurri-3 inhibitor project, dose response (AID 720490); format: functional;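 also: actives lower the luminescence signal as inhibitors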
[14] = HEK-293T viability loss after treatment – luminescence, T-cell screen hits, cytotoxicity control for TCR NF-kB inhibitor project, dose response (AID 489026); format: functional, cell-based;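 also: cells exposed to compound about 14 hours before the viability readout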
[15] = biological target: T2, Protein skinhead-1 (Caenorhabditis elegans, UniProt P34707); format: functional
T2 sequence (P34707 whole entry): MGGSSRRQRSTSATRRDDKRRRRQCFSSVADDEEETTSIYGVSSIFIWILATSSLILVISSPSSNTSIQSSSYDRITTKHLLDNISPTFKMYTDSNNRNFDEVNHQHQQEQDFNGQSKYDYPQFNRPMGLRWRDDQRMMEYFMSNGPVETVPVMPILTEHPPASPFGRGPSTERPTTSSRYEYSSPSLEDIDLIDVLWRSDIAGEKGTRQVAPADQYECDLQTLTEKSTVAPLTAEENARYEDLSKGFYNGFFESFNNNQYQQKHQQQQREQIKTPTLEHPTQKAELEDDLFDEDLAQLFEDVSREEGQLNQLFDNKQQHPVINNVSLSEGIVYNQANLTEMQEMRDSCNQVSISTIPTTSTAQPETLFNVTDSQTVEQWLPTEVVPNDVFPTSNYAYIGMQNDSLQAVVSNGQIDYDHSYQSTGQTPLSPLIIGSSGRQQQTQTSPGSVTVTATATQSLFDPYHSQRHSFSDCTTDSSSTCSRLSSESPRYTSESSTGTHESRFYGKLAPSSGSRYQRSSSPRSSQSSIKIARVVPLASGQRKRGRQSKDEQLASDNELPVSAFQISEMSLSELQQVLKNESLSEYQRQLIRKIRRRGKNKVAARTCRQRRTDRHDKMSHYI

[16] = biological target: Lysosomal acid glucosylceramidase (Homo sapiens, UniProt P04062); experiment: Dose response cell-based high throughput screening assay to identify enhancers of beta-glucosidase activity. [Related pubchem assays: 784 ]; format: functional
[17] = biological target: Sphingosine 1-phosphate receptor 3 (Homo sapiens, UniProt Q99500); experiment: Dose response cell-based high throughput screening assay for antagonists of the Sphingosine 1-Phosphate Receptor 3 (S1P3). [Related pubchem assays: 1429, 485 ]; format: functional
[18] = biological target: 5-hydroxytryptamine receptor 1E (Homo sapiens, UniProt P28566); experiment: Counterscreen assay for S1P3 antagonists: Dose response cell-based high throughput screening assay to identify antagonists of the 5-Hydroxytryptamine Receptor Subtype 1E (5HT1E). [Related pubchem assays: 1429, 485 ]; format: functional
[19] = viability of uninfected HEp-2 cells – cell-based, HTS, cytotoxicity control for RSV inhibitor project, dose response (AID 2410); format: functional; conditions: human respiratory syncytial virus

Sequence of 5-hydroxytryptamine receptor 1E (P28566 whole entry): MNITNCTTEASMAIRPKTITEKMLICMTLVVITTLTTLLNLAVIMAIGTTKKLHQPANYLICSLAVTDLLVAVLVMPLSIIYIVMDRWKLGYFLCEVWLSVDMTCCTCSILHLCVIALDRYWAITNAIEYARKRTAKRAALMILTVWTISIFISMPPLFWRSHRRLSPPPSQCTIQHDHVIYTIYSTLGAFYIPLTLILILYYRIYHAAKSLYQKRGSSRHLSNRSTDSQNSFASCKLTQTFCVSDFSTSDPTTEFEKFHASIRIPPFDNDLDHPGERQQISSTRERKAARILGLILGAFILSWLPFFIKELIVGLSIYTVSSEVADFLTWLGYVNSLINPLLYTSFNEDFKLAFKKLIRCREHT
Sequence of Neuropeptide Y receptor type 2 (P49146 whole entry): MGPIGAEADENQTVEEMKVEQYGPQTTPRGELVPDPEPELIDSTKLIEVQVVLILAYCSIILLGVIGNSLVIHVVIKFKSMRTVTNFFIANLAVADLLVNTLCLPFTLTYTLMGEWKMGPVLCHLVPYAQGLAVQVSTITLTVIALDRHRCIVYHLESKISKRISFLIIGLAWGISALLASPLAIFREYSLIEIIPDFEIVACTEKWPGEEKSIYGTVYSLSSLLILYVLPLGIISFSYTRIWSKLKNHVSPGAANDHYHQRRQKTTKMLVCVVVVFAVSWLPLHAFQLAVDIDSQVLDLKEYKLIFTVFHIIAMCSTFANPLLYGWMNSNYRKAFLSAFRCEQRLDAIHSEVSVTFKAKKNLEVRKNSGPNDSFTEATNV
Sequence of Polyadenylate-binding protein 1 (P11940 whole entry): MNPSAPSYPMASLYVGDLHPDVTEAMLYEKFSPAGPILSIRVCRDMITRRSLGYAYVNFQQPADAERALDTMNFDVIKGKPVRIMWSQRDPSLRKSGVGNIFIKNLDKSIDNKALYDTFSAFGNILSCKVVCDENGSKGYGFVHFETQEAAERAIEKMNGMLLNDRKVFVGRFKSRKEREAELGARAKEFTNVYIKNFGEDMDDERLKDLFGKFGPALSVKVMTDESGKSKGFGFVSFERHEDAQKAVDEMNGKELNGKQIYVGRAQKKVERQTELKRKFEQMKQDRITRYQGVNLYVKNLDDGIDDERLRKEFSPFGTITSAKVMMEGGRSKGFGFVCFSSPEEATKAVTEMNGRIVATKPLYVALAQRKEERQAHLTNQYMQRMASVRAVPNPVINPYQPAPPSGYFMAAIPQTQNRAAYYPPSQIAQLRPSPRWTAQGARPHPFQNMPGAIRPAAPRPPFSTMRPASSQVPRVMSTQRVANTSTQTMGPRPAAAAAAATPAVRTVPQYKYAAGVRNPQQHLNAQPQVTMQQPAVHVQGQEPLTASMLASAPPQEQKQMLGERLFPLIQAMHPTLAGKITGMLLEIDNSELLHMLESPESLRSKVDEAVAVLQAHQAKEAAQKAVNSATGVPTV
Sequence of Vasopressin V1a receptor (P37288 whole entry, the tested form may be a part): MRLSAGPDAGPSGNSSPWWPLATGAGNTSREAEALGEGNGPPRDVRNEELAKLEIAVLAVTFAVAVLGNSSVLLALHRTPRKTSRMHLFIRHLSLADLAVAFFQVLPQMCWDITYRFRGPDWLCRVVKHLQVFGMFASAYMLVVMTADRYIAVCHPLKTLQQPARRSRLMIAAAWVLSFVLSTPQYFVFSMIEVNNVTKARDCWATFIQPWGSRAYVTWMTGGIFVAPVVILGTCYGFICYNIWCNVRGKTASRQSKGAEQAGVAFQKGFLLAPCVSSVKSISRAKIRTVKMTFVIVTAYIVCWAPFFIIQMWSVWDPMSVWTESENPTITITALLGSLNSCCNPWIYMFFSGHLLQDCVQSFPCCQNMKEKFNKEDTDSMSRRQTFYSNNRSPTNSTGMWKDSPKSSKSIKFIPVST
Sequence of Oxytocin receptor (P30559 whole entry): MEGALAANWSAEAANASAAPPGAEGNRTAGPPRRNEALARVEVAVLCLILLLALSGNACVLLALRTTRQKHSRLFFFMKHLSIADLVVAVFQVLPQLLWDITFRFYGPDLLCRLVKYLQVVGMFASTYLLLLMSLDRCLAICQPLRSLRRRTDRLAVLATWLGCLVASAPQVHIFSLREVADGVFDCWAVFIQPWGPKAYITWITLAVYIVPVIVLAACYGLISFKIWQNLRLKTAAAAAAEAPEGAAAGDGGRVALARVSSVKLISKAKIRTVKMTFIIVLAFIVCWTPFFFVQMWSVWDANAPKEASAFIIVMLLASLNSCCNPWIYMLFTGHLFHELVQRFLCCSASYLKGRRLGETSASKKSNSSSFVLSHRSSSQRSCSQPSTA
Sequence of Sphingosine 1-phosphate receptor 3 (Q99500 whole entry): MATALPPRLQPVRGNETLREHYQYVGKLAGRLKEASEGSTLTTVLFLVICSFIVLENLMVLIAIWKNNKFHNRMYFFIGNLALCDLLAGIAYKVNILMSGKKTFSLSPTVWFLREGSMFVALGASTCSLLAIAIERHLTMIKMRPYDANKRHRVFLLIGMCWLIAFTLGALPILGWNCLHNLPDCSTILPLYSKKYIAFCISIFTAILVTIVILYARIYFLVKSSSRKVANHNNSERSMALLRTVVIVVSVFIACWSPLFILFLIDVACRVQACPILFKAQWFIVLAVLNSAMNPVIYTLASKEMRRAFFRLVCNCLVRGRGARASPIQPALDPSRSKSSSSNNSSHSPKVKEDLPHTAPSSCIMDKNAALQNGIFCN
Sequence of Photoreceptor-specific nuclear receptor (Q9Y5X4 whole entry, the tested form may be a part): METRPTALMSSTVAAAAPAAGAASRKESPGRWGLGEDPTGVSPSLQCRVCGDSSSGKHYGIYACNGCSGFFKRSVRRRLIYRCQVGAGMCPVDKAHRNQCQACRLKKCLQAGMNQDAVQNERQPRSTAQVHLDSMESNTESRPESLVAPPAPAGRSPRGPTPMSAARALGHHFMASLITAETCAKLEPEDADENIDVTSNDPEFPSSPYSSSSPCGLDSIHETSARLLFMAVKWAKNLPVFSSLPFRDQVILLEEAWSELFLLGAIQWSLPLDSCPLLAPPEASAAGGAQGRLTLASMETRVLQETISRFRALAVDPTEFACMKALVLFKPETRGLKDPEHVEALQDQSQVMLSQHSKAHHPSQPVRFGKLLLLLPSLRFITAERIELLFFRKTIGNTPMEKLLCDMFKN
Sequence of Lysosomal acid glucosylceramidase (P04062 whole entry): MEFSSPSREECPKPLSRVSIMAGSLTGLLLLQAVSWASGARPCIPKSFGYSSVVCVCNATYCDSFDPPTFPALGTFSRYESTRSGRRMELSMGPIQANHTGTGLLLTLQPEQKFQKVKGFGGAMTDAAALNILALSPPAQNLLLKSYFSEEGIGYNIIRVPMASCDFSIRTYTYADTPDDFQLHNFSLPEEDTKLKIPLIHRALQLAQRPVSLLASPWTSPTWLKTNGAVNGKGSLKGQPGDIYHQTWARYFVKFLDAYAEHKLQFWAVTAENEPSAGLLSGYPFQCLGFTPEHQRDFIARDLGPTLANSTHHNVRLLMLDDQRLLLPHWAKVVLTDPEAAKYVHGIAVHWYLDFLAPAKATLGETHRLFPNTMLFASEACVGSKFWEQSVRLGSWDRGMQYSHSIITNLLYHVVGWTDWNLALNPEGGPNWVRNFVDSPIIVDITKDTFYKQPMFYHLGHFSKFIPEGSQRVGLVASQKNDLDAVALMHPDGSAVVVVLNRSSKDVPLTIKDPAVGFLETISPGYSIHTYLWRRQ
Sequence of Neuropeptide Y receptor type 1 (P25929 whole entry): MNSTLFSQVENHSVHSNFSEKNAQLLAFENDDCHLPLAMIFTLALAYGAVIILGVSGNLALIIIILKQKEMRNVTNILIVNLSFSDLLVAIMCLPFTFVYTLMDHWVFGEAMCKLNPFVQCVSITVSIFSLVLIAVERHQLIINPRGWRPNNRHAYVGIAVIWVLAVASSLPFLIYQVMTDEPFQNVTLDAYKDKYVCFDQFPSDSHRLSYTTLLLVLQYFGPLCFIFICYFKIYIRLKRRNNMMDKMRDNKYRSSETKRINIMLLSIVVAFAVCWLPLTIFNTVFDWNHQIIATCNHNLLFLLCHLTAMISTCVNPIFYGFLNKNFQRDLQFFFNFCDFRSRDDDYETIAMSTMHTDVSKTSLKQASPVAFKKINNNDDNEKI

With Fc1ccc(Nc2c(-c3ccco3)nc3ccccn23)cc1 the EC50 [1] was 10.6 µM (not active), the EC50 [2] was 6.46 µM (active) and the EC50 [3] was 17.9 µM (not active).

For COc1ccccc1/N=C1/SCCCN1C, the IC50 [4] was > 100 µM (inactive), the IC50 [5] was 3.57 µM (active) and the EC50 [6] was > 195 µM (not active).

In the case of Cc1ccccc1Cn1nnc(C(=O)Nc2cccc(C)c2C)c1N, the EC50 [7] is reported as > 29.9 µM (not active), the EC50 [8] is reported as > 29.9 µM (not active) and the IC50 [9] is reported as 39.8 µM (inactive).

With c1ccc(-c2noc(-c3ccc4ccccc4c3)n2)nc1 the AC50 [10] was 27.6 µM (active), the AC50 [11] was 1.98 µM (active) and the IC50 [12] was 31.9 µM (not active). For the same compound, the AC50 [13] was 5.85 µM (active), the IC50 [14] was > 80 µM (inactive) and the IC50 [15] was > 100 µM (inactive).

For CCOC(=O)COc1ccc(-c2nnc(-c3ccccc3)o2)cc1, the EC50 [16] was > 10 µM (not active).

In the case of CCCC[C@@H]1C[C@H]1[C@@H](NC(=O)c1cccs1)c1ccc(Cl)cc1, the IC50 [17] is reported as 1.21 µM (active), the IC50 [18] is reported as 2.47 µM (active) and the CC50 [19] is reported as 20.8 µM (active).
